Experimental data taken from ChEMBL document CHEMBL2401704, “Inhibition of rhodesain as a novel therapeutic modality for human African trypanosomiasis” (J Med Chem, 2013).
Residues, ends and D or L forms follow the SMILES beside them. *: point of attachment. Cbz = O=C(OCc1ccccc1)*; CHN2 = [N-]=[N+]=C*; CH2Cl = ClC*

How the values were obtained:
[1] = tested on: Trypanosoma brucei rhodesiense; test: Antitrypanosomal activity against Trypanosoma brucei rhodesiense; type: functional, organism-based
Trypanosoma brucei [2] = test: Antitrypanosomal activity against Trypanosoma brucei; type: functional, organism-based
[3] = Inhibition of Trypanosoma brucei rhodesain
[4] = Inhibition of Trypanosoma brucei recombinant rhodesain
Trypanosoma brucei [5] = test: Inhibition of Trypanosoma brucei rhodesain assessed as second order rate constant
L6 = test: Cytotoxicity against rat L6 cells; type: cell-based
Plasmodium falciparum = test: Antiprotozoal activity against Plasmodium falciparum; type: functional, organism-based
[6] = Inhibition of Plasmodium falciparum Falcipain 2
Rhodesain = Rhodesain (Trypanosoma brucei rhodesiense, UniProt Q95PM0); test: Inhibition of Trypanosoma brucei rhodesiense rhodesain
Sequence of Rhodesain (Q95PM0 whole entry): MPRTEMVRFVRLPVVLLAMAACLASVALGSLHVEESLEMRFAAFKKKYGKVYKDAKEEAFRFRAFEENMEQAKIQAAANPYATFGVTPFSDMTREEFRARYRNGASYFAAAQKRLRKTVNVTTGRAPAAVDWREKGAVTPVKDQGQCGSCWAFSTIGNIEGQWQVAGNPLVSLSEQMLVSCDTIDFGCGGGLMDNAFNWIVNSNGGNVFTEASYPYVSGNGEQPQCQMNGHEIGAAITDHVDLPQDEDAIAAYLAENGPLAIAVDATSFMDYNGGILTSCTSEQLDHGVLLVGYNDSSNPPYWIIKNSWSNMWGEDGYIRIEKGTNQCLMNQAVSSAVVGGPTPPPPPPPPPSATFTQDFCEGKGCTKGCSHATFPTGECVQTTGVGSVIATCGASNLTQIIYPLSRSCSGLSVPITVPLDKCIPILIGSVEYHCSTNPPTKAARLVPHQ

[7] = tested on: Trypanosoma brucei brucei; test: Antitrypanosomal activity against Trypanosoma brucei brucei; type: functional, organism-based
[8] = tested on: Trypanosoma brucei brucei; test: Antitrypanosomal activity against blood stream form of Trypanosoma brucei brucei; type: functional, organism-based
[9] = tested on: Trypanosoma brucei brucei; test: Antitrypanosomal activity against procyclic form of Trypanosoma brucei brucei; type: functional; conditions: read-out: ED50 (the source's name)
Cruzipain = Cruzipain (Trypanosoma cruzi, UniProt P25779); test: Inhibition of Trypanosoma cruzi cruzain
Sequence of Cruzipain (P25779 whole entry): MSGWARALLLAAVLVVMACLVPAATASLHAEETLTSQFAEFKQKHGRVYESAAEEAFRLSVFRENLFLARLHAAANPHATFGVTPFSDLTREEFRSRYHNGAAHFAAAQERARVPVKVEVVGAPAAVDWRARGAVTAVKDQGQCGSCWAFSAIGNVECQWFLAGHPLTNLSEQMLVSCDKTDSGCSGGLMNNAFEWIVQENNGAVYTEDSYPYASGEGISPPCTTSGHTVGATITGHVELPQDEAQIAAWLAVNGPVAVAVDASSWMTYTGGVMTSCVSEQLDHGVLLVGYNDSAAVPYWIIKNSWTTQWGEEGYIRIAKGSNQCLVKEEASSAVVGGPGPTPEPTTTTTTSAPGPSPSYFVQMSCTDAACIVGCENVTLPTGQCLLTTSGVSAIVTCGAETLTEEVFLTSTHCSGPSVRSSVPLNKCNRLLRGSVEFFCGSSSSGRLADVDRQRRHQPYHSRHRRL

CCCC/C(=N\NC(N)=S)c1ccc(Cl)c(Cl)c1
IC50 [1]: 130 nM

C/C(=N\N=C(\N)S)c1cccc(Nc2ccccc2)c1
IC50 (Trypanosoma brucei [2]): 8000 nM
IC50 [3]: 800 nM

CN(C#N)N(C)C(=O)[C@H](Cc1ccccc1)NC(=O)OCc1ccccc1
IC50 [4]: 0.4 nM

O=C(N[C@@H](Cc1ccccc1)C(=O)N[C@H](/C=C/S(=O)(=O)CCc1ccccc1)CCc1ccccc1)OCc1ccccc1
K (Trypanosoma brucei [5]): 1.09 ×10⁷ /M/min

N#Cc1nc(N2CCOCC2)nc(N(Cc2ccc3c(c2)OCO3)C2CCCCC2)n1
IC50 (L6): 11100 nM
IC50 (Plasmodium falciparum): 2900 nM
Ki [6]: 20 nM
IC50 [1]: 30100 nM
Ki (Rhodesain): 8 nM

O=C(N[C@@H](Cc1ccccc1)C(=O)N[C@H](/C=C/S(=O)(=O)c1ccccc1)CCc1ccccc1)OCc1ccccc1
K (Trypanosoma brucei [5]): 1.61 ×10⁷ /M/min

CC(C)(C)OC(=O)NCc1cccc(NC(=O)c2ccc(C(=O)NC(=N)NC(=O)OCc3ccccc3)[nH]2)c1
IC50 [7]: 220 nM
Ki [6]: 620 nM
Ki [3]: 110 nM

CC(C)C[C@H](NC(=O)c1ccc2c(c1)OCCO2)C(=O)N(C)N(C#N)CCc1ccccc1
IC50 [4]: 0.71 nM

CN(C(=O)[C@H](Cc1ccccc1)NC(=O)c1ccc2c(c1)OCCO2)N(C#N)CCc1ccccc1
IC50 [4]: 1.86 nM

O=C(N[C@@H](Cc1ccccc1)C(=O)N[C@@H](Cc1ccccc1)C(=O)CCl)OCc1ccccc1 (Cbz-Phe-Phe-CH2Cl)
IC50 [8]: 3600 nM

C[C@H](NC(=O)[C@H](Cc1ccccc1)NC(=O)OCc1ccccc1)C(=O)C=[N+]=[N-]
IC50 [8]: 6100 nM

O=C(N[C@@H](Cc1ccccc1)C(=O)N[C@H](/C=C/S(=O)(=O)Cc1ccccc1)CCc1ccccc1)OCc1ccccc1
K (Trypanosoma brucei [5]): 5.35 ×10⁷ /M/min

CCCC1CCC(N(Cc2ccc3c(c2)OCO3)c2nc(C#N)nc(N3CCOCC3)n2)CC1 (stereo not drawn)
IC50 (L6): 5900 nM
IC50 (Plasmodium falciparum): 2400 nM
Ki [6]: 1030 nM
IC50 [1]: 31200 nM
Ki (Rhodesain): 2 nM

N=C(NC(=O)OCc1ccccc1)NC(=O)c1ccc(C(=O)NCc2cccc(NC(=O)OCc3ccccc3)c2)o1
IC50 [7]: 8310 nM
Ki [6]: 1150 nM
Ki [3]: 50 nM

CN(C(=O)[C@H](Cc1ccccc1)NC(=O)c1ccc2c(c1)OCCO2)N(C#N)CCCc1ccccc1
IC50 [4]: 0.24 nM

CC(C)C[C@H](NC(=O)N1CCOCC1)C(=O)N[C@H](/C=C/S(=O)(=O)c1ccccc1)CCc1ccccc1
K (Trypanosoma brucei [5]): 15.8 ×10⁶ /M/min

CN(C(=O)[C@H](Cc1ccccc1)NC(=O)OCc1ccccc1)N(C#N)Cc1ccccc1
EC50 [9]: 400 nM
IC50 [4]: 0.19 nM
EC50 ([8]; read-out: ED50 (the source's name)): 1100 nM

N=C(NC(=O)OCc1ccccc1)NC(=O)c1ccc(C(=O)NCc2ccccc2)[nH]1
IC50 [7]: 9170 nM
Ki [6]: 7810 nM
Ki [3]: 50 nM

O=C(N[C@@H](Cc1ccccc1)C(=O)N[C@H](/C=C/S(=O)(=O)Oc1ccccc1)CCc1ccccc1)OCc1ccccc1
K (Trypanosoma brucei [5]): 3.48 ×10⁸ /M/min

CCCCCN(C#N)N(C)C(=O)[C@H](CC(C)C)NC(=O)c1ccc2c(c1)OCCO2
IC50 [4]: 0.33 nM

CC(C)[C@H](NC(=O)c1ccc2c(c1)OCCO2)C(=O)N(C)N(C#N)CCCc1ccccc1
IC50 [4]: 54 nM

O=C1C(=O)N(S(=O)(=O)c2ccccc2)c2ccccc21
IC50 [3]: 15000 nM

CC(C)C[C@H](NC(=O)c1ccc2c(c1)OCCO2)C(=O)N(C)N(C)C#N
IC50 [4]: 0.06 nM

C[C@H](NC(=O)[C@H](Cc1ccccc1)NC(=O)OCc1ccccc1)C(=O)CCl
IC50 [8]: 21000 nM

CCCCCN(C#N)N(C)C(=O)[C@@H](NC(=O)c1ccc2c(c1)OCCO2)C(C)C
IC50 [4]: 54.6 nM

[N-]=[N+]=CC(=O)[C@H](Cc1ccccc1)NC(=O)[C@H](Cc1ccccc1)NC(=O)OCc1ccccc1 (Cbz-Phe-Phe-CHN2)
IC50 [8]: 4800 nM

CS/C(S)=N/N=C(\C)c1ccccn1
IC50 (Trypanosoma brucei [2]): 300 nM
IC50 [3]: > 20000 nM

N=C(NC(=O)OCc1ccccc1)NC(=O)c1ccc(C(=O)NCc2ccc(NC(=O)OCc3ccccc3)cc2)[nH]1
IC50 [7]: > 100000 nM
Ki [6]: 870 nM
Ki [3]: 28 nM

N#Cc1nc(N2CCOCC2)nc(N(c2ccccc2)c2ccccc2)n1
IC50 (L6): 22000 nM
IC50 (Plasmodium falciparum): > 5000 nM
Ki [6]: 42 nM
IC50 [1]: 18900 nM
Ki (Rhodesain): 36 nM

NC(=S)/N=N/c1c(O)[nH]c2ccccc12
IC50 [3]: 3500 nM

C/C(=N\N=C(\N)S)c1ccc(-c2ccccc2)cc1
IC50 (Trypanosoma brucei [2]): 10000 nM
IC50 [3]: 90 nM

CC(C)[C@H](NC(=O)c1ccc2c(c1)OCCO2)C(=O)N(C)N(C#N)CCc1ccccc1
IC50 [4]: 35.1 nM

CC(C)C[C@H](NC(=O)c1ccc2c(c1)OCCO2)C(=O)N(C)N(C#N)CCCc1ccccc1
IC50 [4]: 0.14 nM

COCCNc1nc(C#N)nc(N(Cc2cccc(C(F)(F)F)c2)C2C3CC4CC(C3)CC2C4)n1 (stereo not drawn)
IC50 (L6): 8100 nM
IC50 (Plasmodium falciparum): 1800 nM
Ki [6]: 9800 nM
IC50 [1]: 19600 nM

C/C(=N\NC(N)=S)c1cccc(/C(C)=N/NC(N)=S)c1
IC50 (Trypanosoma brucei [2]): > 20000 nM
IC50 [3]: 330 nM

CC(C)C[C@H](NC(=O)c1ccc2c(c1)OCCO2)C(=O)N(C)N(C#N)Cc1ccccc1
IC50 [4]: 0.33 nM

O=C1C(=O)N(C(=O)OCc2ccccc2)c2ccccc21
IC50 [3]: 30000 nM

N=C(NC(=O)OCc1ccccc1)NC(=O)c1ccc(C(=O)NCc2cccc(NC(=O)OCc3ccccc3)c2)[nH]1
IC50 [7]: 2320 nM
Ki [6]: 1620 nM
Ki [3]: 100 nM

N=C(NC(=O)OCc1ccccc1)NC(=O)c1ccc(C(=O)NCc2ccccc2)o1
Ki [6]: 2690 nM
Ki [3]: 2080 nM

CCCc1c(NC(=O)Nc2ccc(OC(F)(F)F)cc2)cnn1-c1ccc(Cl)cc1
IC50 [3]: < 10000 nM
IC50 (Cruzipain): < 10000 nM

C/C(=N\N=C(\N)S)c1ccc(Oc2ccccc2)cc1
IC50 (Trypanosoma brucei [2]): 3000 nM
IC50 [3]: 8000 nM

C/C(=N\N=C(\N)S)c1ccc(Nc2ccccc2)cc1
IC50 (Trypanosoma brucei [2]): 4500 nM
IC50 [3]: 18000 nM

CN(C(=O)[C@H](Cc1ccccc1)NC(=O)c1ccc2c(c1)OCCO2)N(C#N)Cc1ccccc1
IC50 [4]: 0.51 nM

C/C(=N\N=C(/S)N1CCCCC1)c1cccc(Br)c1
IC50 (Trypanosoma brucei [2]): 3000 nM
IC50 [3]: 4000 nM

CN(C#N)N(C)C(=O)[C@H](Cc1ccccc1)NC(=O)OC(C)(C)C
IC50 [4]: 0.06 nM

CCN(CC)/C(S)=N/N=C(\C)c1cccc(Br)c1
IC50 (Trypanosoma brucei [2]): 3000 nM
IC50 [3]: 1800 nM

O=C(NC(=S)Nc1ccc(O)cc1)c1sc2ccccc2c1Cl
IC50 [3]: < 10000 nM
IC50 (Cruzipain): < 10000 nM

N#Cc1nc(N2CCOCC2)nc(N(Cc2cccc(C(F)(F)F)c2)C2C3CC4CC(C3)CC2C4)n1 (stereo not drawn)
IC50 (L6): 23200 nM
IC50 (Plasmodium falciparum): 1100 nM
Ki [6]: 12900 nM
IC50 [1]: 27500 nM

O=C(NC(=S)Nc1ncccc1OCc1ccccc1)c1cccn1S(=O)(=O)c1ccccc1
IC50 [3]: 3500 nM
IC50 (Cruzipain): 3000 nM

CN(C(=O)[C@H](Cc1ccccc1)NC(=O)OCc1ccccc1)N(C#N)CCc1ccccc1
IC50 [4]: 0.81 nM

N#Cc1nc(N2CCOCC2)nc(N(c2ccccc2F)C2CCCCC2)n1
IC50 (L6): 11400 nM
IC50 (Plasmodium falciparum): > 5000 nM
Ki [6]: 25 nM
IC50 [1]: 15000 nM
Ki (Rhodesain): 11 nM

NC(=S)/N=N/c1c(O)[nH]c2ccc(I)cc12
IC50 [3]: 1000 nM

C/C(=N\N=C(\N)S)c1cccc(Oc2ccccc2)c1
IC50 (Trypanosoma brucei [2]): 6000 nM
IC50 [3]: 550 nM

CSc1cccc(NC(=O)Nc2sc3ccccc3c2Cl)c1
IC50 [3]: < 10000 nM
IC50 (Cruzipain): < 10000 nM

N/C(S)=N/N=C(\C=C\c1ccccc1)c1ccc(Cl)c(Cl)c1
IC50 [1]: 72 nM

CC(C)[C@H](NC(=O)c1ccc2c(c1)OCCO2)C(=O)N(C)N(C#N)Cc1ccccc1
IC50 [4]: 15.8 nM

C[C@H](NC(=O)[C@H](Cc1ccccc1)NC(=O)OCc1ccccc1)C(=O)CF
IC50 [8]: 31000 nM

CCCCCN(C#N)N(C)C(=O)[C@H](Cc1ccccc1)NC(=O)c1ccc2c(c1)OCCO2
IC50 [4]: 1.34 nM

C/C(=N\N=C(\N)S)c1cccc(Br)c1
IC50 (Trypanosoma brucei [2]): > 20000 nM
IC50 [3]: 50 nM

CN(C#N)N(C)C(=O)[C@H](Cc1ccccc1)NC(=O)c1ccc2c(c1)OCCO2
IC50 [4]: 0.14 nM

O=C(N[C@@H](Cc1ccccc1)C(=O)N[C@H](/C=C/S(=O)(=O)Nc1ccccc1)CCc1ccccc1)OCc1ccccc1
K (Trypanosoma brucei [5]): 2.24 ×10⁶ /M/min

CC(C)[C@H](NC(=O)c1ccc2c(c1)OCCO2)C(=O)N(C)N(C)C#N
IC50 [4]: 5.4 nM

C/C(=N\N=C(\N)S)c1cccc(-c2ccccc2)c1
IC50 (Trypanosoma brucei [2]): 12000 nM
IC50 [3]: 1100 nM

CC(C)(C)OC(=O)Nc1cccc(CNC(=O)c2ccc(C(=O)NC(=N)NC(=O)OCc3ccccc3)o2)c1
IC50 [7]: 3210 nM
Ki [6]: 3930 nM
Ki [3]: 5290 nM

CCN(c1nc(C#N)nc(N2CCOCC2)n1)C1CCCCC1
IC50 (L6): 45500 nM
IC50 (Plasmodium falciparum): > 5000 nM
Ki [6]: 80 nM
IC50 [1]: 44100 nM
Ki (Rhodesain): 100 nM

C/C(=N\N=C(/S)N1CCN(C)CC1)c1cccc(Br)c1
IC50 (Trypanosoma brucei [2]): 2000 nM
IC50 [3]: 4000 nM
